These results are taken from US4609673A, “Carboxylic acid derivatives, processes for the preparation thereof and pharmaceutical compositions containing them” (Boehringer Mannheim GmbH, priority 1984, dated 1986).

The subject of one assay is citrate synthase. Conditions: Angew. Chem., 92, 133/1980; cited from earlier work.
Another assay concerns HMG-CoA-reductase. Conditions: cited from earlier work.
For a further assay, the system named is HMG-CoA synthase. Conditions: J. Biol. Chem., 257, 2842/1982; cited from earlier work.
Another assay concerns Rat hepatocytes. Put plainly: 14C-acetate incorporation into cholesterol (cholesterol biosynthesis) in rat hepatocytes. It counts as cell-based. Conditions: Hepatocyte, end concentration about 10^-5 M, 48 h incubation, DMSO, related to solvent treated control. As for the experimental part:
Rat hepatocytes were isolated according to Berry and Friend (J. Cell Biol., 43, 506-520 (1969)) and cultured as described by Davis et al. (J. Biol. Chem., 254, 2010-2016 (1979)). 2-^14 C-Acetate was used as a precursor for determination of the cholesterol biosynthesis. Newly synthetized cholesterol was determined by liquid scintillation spectrometry after extraction of radiolabelled sterols from the culture medium (Can. J. Biochem. Physiol., 37, 912-917 (1959)). The test compounds were dissolved in dimethylsulfoxide. 1 μl of this solution was given to 1 ml of the culture medium. The percentage of inhibition of ^14 C-acetate incorporation is related to a solvent treated control.
The compounds listed in the following table were tested with respect to their effect on the rate hepatocytes according to the method mentioned above. The compounds were dissolved in DMSO. 1 μl of this solution was added to 1 ml of the culture medium.
The end concentration was about 10^-5 M, the period of the incubation was 48 h. The ^14 C-acetate incorporation in cholesterol was determined.

Consider `CC(C)(COP(=O)(O)OP(=O)(O)OC[C@H]1O[C@@H](n2cnc3c(N)ncnc32)[C@H](O)[C@@H]1OP(=O)(O)O)[C@@H](O)C(=O)NCCC(=O)NCCSCCC(O)(CC(=O)O)C(=O)O` (stereo partly drawn) [3,4-dicarboxy-3-hydroxybutylcoenzyme A], for which, in the assay on citrate synthase, the “inhibiting action on the enzyme citrate synthase (in words)” value is listed as “exerts an inhibiting action”.
In the case of `CC(O)(CCSCCNC(=O)CCNC(=O)[C@H](O)C(C)(C)COP(=O)(O)OP(=O)(O)OC[C@H]1O[C@@H](n2cnc3c(N)ncnc32)[C@H](O)[C@@H]1OP(=O)(O)O)CC(=O)O` (stereo partly drawn) [3-hydroxy-3-methyl-4-carboxybutyl-coenzyme A], the “inhibiting action on the enzyme HMG-CoA-reductase (in words)” value with HMG-CoA-reductase (FEBS Letters, 128, 145/1981) was “possesses an inhibiting action”.
On to `CC(=O)CCSCCNC(=O)CCNC(=O)[C@H](O)C(C)(C)COP(=O)(O)OP(=O)(O)OC[C@H]1O[C@@H](n2cnc3c(N)ncnc32)[C@H](O)[C@@H]1OP(=O)(O)O` [3-oxobutyl-coenzyme A], for which, in the assay with HMG-CoA synthase, the “substrate for HMG-CoA synthase (in words)” value is given as “substrate”.
Take `CC[C@H](C)C(=O)O[C@H]1CCC=C2C=C[C@H](C)[C@H](CC[C@@H]3C[C@@H](O)CC(=O)O3)[C@H]21` [Compactin, 2-Methylbutanoic acid 1,2,3,7,8,8α-hexahydro-7-methyl-8-[2-(tetrahydro-4-hydroxy-6-oxo-2H-pyran-2-yl)ethyl]-1-naphthalenyl ester]: the inhibition – broadly, the change of the read-out against control, counted positive when it falls – at 10 µM in the assay on Rat hepatocytes was 59%. Also, in the assay with HMG-CoA-reductase (comparison compound), the “inhibitor of HMG-CoA reductase (in words)” value is “potent inhibitor”.
In the assay with Rat hepatocytes, `CC(O)(CCSCCNC(=O)CCNC(=O)C(O)C(C)(C)CO)CC(=O)O` (stereo not drawn) [Example 2, 9,13-Diaza-10,14-dioxo-6-thia-3,15,17-trihydroxy-3,16,16-trimethylheptadecanoic acid] had an inhibition at 10 µM of 33%.
In the assay on Rat hepatocytes, `CCOC(=O)CC(C)(C)CCSCCNC(=O)CCNC(=O)C(O)C(C)(C)CO` (stereo not drawn) [Example 11, 9,13-Diaza-15,17-dihydroxy-10,14-dioxo-3,3,16,16-tetramethyl-6-thiaheptadecanoic acid ethyl ester] returned an inhibition at 10 µM of 28%.
Molecule `CC(CC(=O)NCCSCCC(C)(C)CC(=O)O)NC(=O)c1ccccc1` (stereo not drawn) [Example 15d, 9,13-diaza-10,14-dioxo-14-phenyl-6-thia-3,3,12-trimethyltetradecanoicacid] returned an inhibition at 10 µM with Rat hepatocytes of 12%.
Molecule `O=C(O)CCCCSCCNC(=O)CNCc1ccccc1` [Example 16, 9,12-Diaza-10-oxo-13-phenyl-6-thiatridecanoic acid] displayed an inhibition at 10 µM in the assay with Rat hepatocytes of 10%.
